Biological target: EZH2 (Homo sapiens (Human), UniProt Q15910)
Test: PRC2 enzyme assay on peptide substrates
Type: biochemical
Details: PRC2 enzyme assays on peptide substrates; 4 nM enzyme, 30 min preincubation at 25° C.; read-out: EZH2 IC50

Chain of EZH2 (Q15910 other isoform, or with tags, fused parts or gaps): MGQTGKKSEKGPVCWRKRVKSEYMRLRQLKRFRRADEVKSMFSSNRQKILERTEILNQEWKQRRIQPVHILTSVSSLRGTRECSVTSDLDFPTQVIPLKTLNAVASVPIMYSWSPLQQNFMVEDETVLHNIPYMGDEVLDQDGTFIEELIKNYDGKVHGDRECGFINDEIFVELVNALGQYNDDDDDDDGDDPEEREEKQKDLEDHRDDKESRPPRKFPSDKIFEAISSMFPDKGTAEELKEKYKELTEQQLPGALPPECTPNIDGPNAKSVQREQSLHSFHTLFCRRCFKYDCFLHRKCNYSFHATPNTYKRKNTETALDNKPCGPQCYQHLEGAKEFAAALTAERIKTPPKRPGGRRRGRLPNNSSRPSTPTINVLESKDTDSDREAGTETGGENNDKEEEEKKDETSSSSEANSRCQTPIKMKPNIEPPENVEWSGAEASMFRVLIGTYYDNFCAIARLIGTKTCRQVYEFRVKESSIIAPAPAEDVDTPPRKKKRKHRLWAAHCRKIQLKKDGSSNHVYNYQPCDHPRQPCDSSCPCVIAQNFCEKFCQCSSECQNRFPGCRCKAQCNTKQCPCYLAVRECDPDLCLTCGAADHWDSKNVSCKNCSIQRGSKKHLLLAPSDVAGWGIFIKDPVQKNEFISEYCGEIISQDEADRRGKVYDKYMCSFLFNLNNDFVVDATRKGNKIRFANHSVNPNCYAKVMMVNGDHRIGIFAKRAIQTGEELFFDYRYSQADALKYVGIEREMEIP
Chain of EZH2 (O75530 whole entry partner): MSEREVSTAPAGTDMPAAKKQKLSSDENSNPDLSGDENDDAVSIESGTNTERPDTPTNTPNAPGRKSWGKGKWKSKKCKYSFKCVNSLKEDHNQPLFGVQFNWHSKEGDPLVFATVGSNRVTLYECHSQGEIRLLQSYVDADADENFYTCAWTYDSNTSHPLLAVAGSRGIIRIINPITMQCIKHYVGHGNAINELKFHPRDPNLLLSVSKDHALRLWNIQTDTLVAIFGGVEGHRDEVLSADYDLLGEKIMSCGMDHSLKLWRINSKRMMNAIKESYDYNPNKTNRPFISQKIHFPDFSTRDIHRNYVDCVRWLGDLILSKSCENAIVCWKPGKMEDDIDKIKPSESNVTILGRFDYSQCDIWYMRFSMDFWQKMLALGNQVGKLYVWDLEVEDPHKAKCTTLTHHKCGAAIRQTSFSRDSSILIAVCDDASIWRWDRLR
Chain of EZH2 (Q15022 whole entry partner): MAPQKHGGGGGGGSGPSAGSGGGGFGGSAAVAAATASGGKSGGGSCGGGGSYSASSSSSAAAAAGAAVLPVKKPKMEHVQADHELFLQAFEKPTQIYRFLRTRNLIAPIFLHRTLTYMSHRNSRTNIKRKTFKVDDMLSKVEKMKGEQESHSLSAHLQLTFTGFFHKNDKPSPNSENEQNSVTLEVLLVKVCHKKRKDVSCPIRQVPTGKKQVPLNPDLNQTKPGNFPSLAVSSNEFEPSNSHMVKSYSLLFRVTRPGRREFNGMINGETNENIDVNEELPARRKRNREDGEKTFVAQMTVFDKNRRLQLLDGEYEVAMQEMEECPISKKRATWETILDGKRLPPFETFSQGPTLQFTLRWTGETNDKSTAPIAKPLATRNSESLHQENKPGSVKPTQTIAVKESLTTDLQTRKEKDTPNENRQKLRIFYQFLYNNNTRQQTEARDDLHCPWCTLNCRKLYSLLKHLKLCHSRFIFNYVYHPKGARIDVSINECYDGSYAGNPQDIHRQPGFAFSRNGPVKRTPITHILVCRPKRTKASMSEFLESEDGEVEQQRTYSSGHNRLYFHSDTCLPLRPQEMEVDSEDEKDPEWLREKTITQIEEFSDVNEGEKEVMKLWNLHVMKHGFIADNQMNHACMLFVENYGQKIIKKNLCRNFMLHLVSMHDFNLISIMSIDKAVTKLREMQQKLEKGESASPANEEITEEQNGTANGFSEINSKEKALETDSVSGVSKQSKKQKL
Chain of EZH2 (Q09028 whole entry partner): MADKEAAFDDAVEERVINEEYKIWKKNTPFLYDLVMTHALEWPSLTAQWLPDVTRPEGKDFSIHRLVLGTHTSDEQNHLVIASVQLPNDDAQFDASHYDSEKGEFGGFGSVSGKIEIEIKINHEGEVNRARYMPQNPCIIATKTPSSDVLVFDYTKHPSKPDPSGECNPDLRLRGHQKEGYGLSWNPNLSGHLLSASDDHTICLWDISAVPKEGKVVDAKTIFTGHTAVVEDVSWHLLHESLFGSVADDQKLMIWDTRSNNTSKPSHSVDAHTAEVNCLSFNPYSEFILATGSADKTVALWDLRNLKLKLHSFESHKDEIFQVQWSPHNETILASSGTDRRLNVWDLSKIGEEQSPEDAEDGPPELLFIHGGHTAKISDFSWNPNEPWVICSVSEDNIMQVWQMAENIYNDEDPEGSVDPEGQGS

Which IC50 does the source give for Cc1cc(C)c(CNC(=O)c2cc(N3CCC(N4CCNCC4)CC3)nc3c2cnn3C(C)C)c(=O)[nH]1 [Compound B-44] here?
Its IC50 is 0.3 to 1 µM.

With Cc1cc(C)c(CNC(=O)c2cc(-c3ccc(CN(C)CCCN(C)C)cc3)cc3c2cnn3C2CCCC2)c(=O)[nH]1 [Compound C-17] as the molecule, how does the IC50 read?
Its IC50 is under 0.3 µM.

How did the IC50 turn out when Cc1cc(CO)c(CNC(=O)c2cc(-c3ccc(CN4CCOCC4)cc3)nc3c2cnn3C(C)C)c(=O)[nH]1 [Compound A-96] was run?
The IC50 was 3 to 10 µM.

With Cc1cc(C)c(CNC(=O)c2cc(Br)cc3c2cnn3C2CCN(C(=O)C3CNC3)CC2)c(=O)[nH]1 [Compound D-14, 1-(1-(azetidine-3-carbonyl)piperidin-4-yl)-6-bromo-N-((4,6-dimethyl-2-oxo-1,2-dihydropyridin-3-yl)methyl)-1H-indazole-4-carboxamide] as the molecule, how does the IC50 read?
The IC50 was under 0.3 µM.

Cc1cc(C)c(CNC(=O)c2cc(CN3CCOCC3)cc3c2cnn3C2CCCC2)c(=O)[nH]1 [Compound D-64] was tested. Which IC50 did it give?
Its IC50 is 0.3 to 1 µM.

Which IC50 does the source give for Cc1cc(C)c(CNC(=O)c2cc(C3=CC(C)(C)NC(C)(C)C3)nc3c2cnn3C2COC2)c(=O)[nH]1 [Compound B-15, N-((4,6-dimethyl-2-oxo-1,2-dihydropyridin-3-yl)methyl)-1-(oxetan-3-yl)-6-(2,2,6,6-tetramethyl-1,2,3,6-tetrahydropyridin-4-yl)-1H-pyrazolo[3,4-b]pyridine-4-carboxamide] here?
The IC50 was 0.3 to 1 µM.

With Cc1cc(C)c(CNC(=O)c2cc(C(O)CO)nc3c2cnn3C(C)C)c(=O)[nH]1 (centres unmarked) [Compound B-126] as the molecule, how does the IC50 read?
Its IC50 is 3 to 10 µM.

How did the IC50 turn out when Cc1cc(C)c(CNC(=O)c2cc(C3=CC(C)(C)NC(C)(C)C3)nc3c2cnn3CCC#N)c(=O)[nH]1 [Compound B-144] was run?
Its IC50 is 3 to 10 µM.

For Cc1cc[nH]c(=O)c1CNC(=O)c1cc(-c2cccc(CN(C)CCN(C)C)c2)nc2c1cnn2C(C)C [Compound A-70], which IC50 is on record?
Its IC50 is 3 to 10 µM.

Which IC50 does the source give for Cc1cc(C)c(CNC(=O)c2cc(N3CCC(N4CCN(S(C)(=O)=O)CC4)CC3)nc3c2cnn3C(C)C)c(=O)[nH]1 [Compound B-101] here?
Its IC50 is 1 to 3 µM.

With Cc1cc(CN2CCC(N3CCCCC3)CC2)c(CNC(=O)c2cc(Br)cc3c2cnn3C2CCCC2)c(=O)[nH]1 [Compound D-79] as the molecule, how does the IC50 read?
Its IC50 is 1 to 3 µM.

How did the IC50 turn out when Cc1cc(C)c(CNC(=O)c2cc(C3CCN(CCO)CC3)cc3c2cnn3C2CCCC2)c(=O)[nH]1 [Compound D-97] was run?
The IC50 was under 0.3 µM.

Which IC50 does the source give for Cc1cc(C)c(CNC(=O)c2cc(-c3cccc(CNC(=O)OC(C)(C)C)c3)nc3c2cnn3C(C)C)c(=O)[nH]1 [Compound A-92] here?
The IC50 was 1 to 3 µM.

Which IC50 does the source give for CNCC(=O)N1CC=C(c2cc(C(=O)NCc3c(C)cc(C)[nH]c3=O)c3cnn(C4CCCC4)c3c2)CC1 [Compound D-45] here?
The IC50 was under 0.3 µM.

Which IC50 does the source give for Cc1cc(C)c(CNC(=O)c2cc(O)nc3c2cnn3C(C)C)c(=O)[nH]1 [Compound B-147] here?
Its IC50 is 10 to 50 µM.

With Cc1cc(C)c(CNC(=O)c2c(Cl)c(C3=CC(C)(C)NC(C)(C)C3)nc3c2cnn3C(C)C)c(=O)[nH]1 [Compound B-12, 5-chloro-N-((4,6-dimethyl-2-oxo-1,2-dihydropyridin-3-yl)methyl)-1-isopropyl-6-(2,2,6,6-tetramethyl-1,2,3,6-tetrahydropyridin-4-yl)-1H-pyrazolo[3,4-b]pyridine-4-carboxamide] as the molecule, how does the IC50 read?
The IC50 was 1 to 3 µM.

With C=C(C)c1nn(C(C)C)c2nc(-c3ccc(CN4CCOCC4)cc3)cc(C(=O)NCc3c(C)cc(C)[nH]c3=O)c12 [Compound A-94] as the molecule, how does the IC50 read?
Its IC50 is 3 to 10 µM.

For Cc1cc(C)c(CNC(=O)c2cc(C3=CCN(C(=O)[C@H](C)N)CC3)nc3c2cnn3C(C)C)c(=O)[nH]1 [Compound B-46], which IC50 is on record?
The IC50 was 0.3 to 1 µM.

Which IC50 does the source give for Cc1cc(C)c(CNC(=O)c2cc(-c3ccc(-c4ccccc4CN)nc3)nc3c2cnn3C(C)C)c(=O)[nH]1 [Compound A-68] here?
Its IC50 is 3 to 10 µM.

Cc1cc(C)c(CNC(=O)c2cc(C3CCN(C4CCN(S(C)(=O)=O)CC4)CC3)nc3c2cnn3C(C)C)c(=O)[nH]1 [Compound B-35, N-((4,6-dimethyl-2-oxo-1,2-dihydropyridin-3-yl)methyl)-1-isopropyl-6-(1′-(methylsulfonyl)-[1,4′-bipiperidin]-4-yl)-1H-pyrazolo[3,4-b]pyridine-4-carboxamide] was tested. Which IC50 did it give?
Its IC50 is under 0.3 µM.

Source: patent US9637472B2, “Substituted 6,5-fused bicyclic heteroaryl compounds” (Epizyme, Inc., priority 2011, dated 2017)
